Read-outs that look alike come from different tables or passages of the source.
How the values were obtained:
[1] = Whole blood stability, human; format: in vitro ADME
Source text: (§1) The results of the assay on stability in blood and IC50 values for pancreatic cancer cell line KP4 are given below in Table 24.

[2] = tested on: KP4; experiment: Cell viability assay (CellTiter Glo), pancreatic ductal adenocarcinoma KP4; format: cell-based, human; settings: Homo sapiens
Method: (§2) Cell viability assay was performed to assess the potency of the compounds in human cancer cell lines KP4 (pancreatic ductal adenocarcinoma), MiaPaCa-2 (pancreatic carcinoma), AsPC-1 (pancreatic adenocarcinoma, ascites), 143B (osteosarcoma), and SJSA-1 (osteosarcoma). Selected compounds were also assayed in a human breast epithelial cell line MCF-10A, a nontumorigenic cell line as a control to assess differential activity. Cells at a density of 500-5,000 cells/well were seeded in 96-well plates and incubated at 37° C. overnight. A series of 9 different concentrations of compound stocks (500×) were created by 3-fold serial dilution in DMSO. These compounds were further diluted in culture media and then added to cells so that the final DMSO concentration was equal to 0.25% or less. After 96 hours of incubation, 50 μL of CellTiter Glo reagent (Promega) was added to each well and luminescence was measured after 10 minutes using EnVision (PerkinElmer). Compounds titrated from top concentration of up to 30 μM. The select compounds were tested initially from 30 μM as the top concentration in duplicates (range of 4.6 nM-30 μM). […] Luminescence from cells treated with DMSO alone was set as Max and % of inhibition was calculated as follows: Inhibition %=(Max-Sample value)/Max*100. Data was analyzed using XL-fit software (ID Business Solutions Ltd.). IC50, relative IC50, or % of top inhibition was calculated.
as §2, with “in” for “in human”, “line” for “lines”, “adenocarcinoma).” for “adenocarcinoma), MiaPaCa-2 (pancreatic carcinoma), AsPC-1 (pancreatic adenocarcinoma, ascites), 143B (osteosarcoma), and SJSA-1 (osteosarcoma). Selected compounds were also assayed in a human breast epithelial cell line MCF-10A, a nontumorigenic cell line as a control to assess differential activity.”, “1,000-10,000” for “500-5,000”, “All” for “Compounds titrated from top concentration of up to 30 μM. The select”
as §1

[3] = Whole blood stability, mouse; format: in vitro ADME
Source text: as §1

[4] = KP-4, 96 h, pancreatic cancer cell line KP4, 96 hours, CellTiter Glo, read-out: IC50 μM KP4
[5] = KP-4, Cell Line KP4, read-out: IC50

| SMILES | Whole Blood Stability % Remaining at 37° C. Human ([1]; 0 min) [%] | Whole Blood Stability % Remaining at 37° C. Human ([1]; 30 min) [%] | Whole Blood Stability % Remaining at 37° C. Human ([1]; 60 min) [%] | IC50 [2, 4] [µM] | Whole Blood Stability % Remaining at 37° C. Mouse ([3]; 0 min) [%] | Whole Blood Stability % Remaining at 37° C. Mouse ([3]; 30 min) [%] | Whole Blood Stability % Remaining at 37° C. Mouse ([3]; 60 min) [%] | IC50 [2, 5] [µM] |
| --- | --- | --- | --- | --- | --- | --- | --- | --- |
| COC(=O)[C@H]1Cc2c([nH]c3ccccc23)[C@H](c2ccc(S(=O)(=O)N[C@]34C[C@H]5C[C@H](C[C@H](C5)C3)C4)cc2)N1C(=O)CCl [Compound 24] | 100.0 | 61.7 | 50.2 | < 0.01 | 100.0 | 62.0 | 37.0 |  |
| COC(=O)[C@H]1Cc2c([nH]c3ccccc23)[C@H](c2ccc(C(=O)NCCNC(=O)OC(C)(C)C)cc2)N1C(=O)CCl [Compound 16] | 100.0 | 54.3 | 36.9 | < 0.01 | 100.0 | 84.1 | 63.3 |  |
| COC(=O)[C@H]1Cc2c([nH]c3ccccc23)[C@H](c2ccc(S(=O)(=O)NCC3CC3)cc2)N1C(=O)CCl [Compound 82] | 100.0 | 47.6 | 34.5 | < 0.01 | 100.0 | 43.1 | 21.7 |  |
| CN(C)C(=O)[C@H]1Cc2c([nH]c3ccccc23)[C@@H](c2ccc(C(=O)OC(C)(C)C)cc2)N1C(=O)CCl [Compound 21a] |  |  |  | 0.1 to 0.5 |  |  |  |  |
| COC(=O)[C@H]1Cc2c([nH]c3ccccc23)[C@H](c2ccc(C(=O)OC[C@]34C[C@H]5C[C@H](C[C@H](C5)C3)C4)cc2)N1C(=O)CCl [Compound 6] | 100.0 | 54.8 | 33.0 | 0.01 to 0.1 | 100.0 | 12.4 | 4.7 |  |
| C[C@H]1Cc2c([nH]c3ccccc23)[C@@H](c2ccc([Si](C)(C)C)cc2)N1C(=O)CCl [Compound 107] |  |  |  | > 1 |  |  |  |  |
| C[C@H]1Cc2c([nH]c3ccccc23)[C@H](c2ccc(C3CC3)cc2)N1C(=O)CCl [Compound 108] |  |  |  | < 0.01 |  |  |  |  |
| [2H]C([2H])(Cl)C(=O)N1[C@@H](c2ccc(C(=O)OC)cc2)c2[nH]c3ccccc3c2C[C@@H]1C(=O)OC [Compound 90] |  |  |  | < 0.01 |  |  |  |  |
| C[C@H]1Cc2c([nH]c3ccccc23)[C@H](c2ccc([Si](C)(C)C)cc2)N1C(=O)CCl [Compound 106] |  |  |  | < 0.01 |  |  |  |  |

Next, values leading:

| Whole Blood Stability % Remaining at 37° C. Human ([1]; 0 min) [%] | Whole Blood Stability % Remaining at 37° C. Human ([1]; 30 min) [%] | Whole Blood Stability % Remaining at 37° C. Human ([1]; 60 min) [%] | IC50 [2, 4] [µM] | Whole Blood Stability % Remaining at 37° C. Mouse ([3]; 0 min) [%] | Whole Blood Stability % Remaining at 37° C. Mouse ([3]; 30 min) [%] | Whole Blood Stability % Remaining at 37° C. Mouse ([3]; 60 min) [%] | IC50 [2, 5] [µM] | SMILES |
| --- | --- | --- | --- | --- | --- | --- | --- | --- |
| 100.0 | 79.2 | 54.8 | < 0.01 | 100.0 | 0.0 | 0.0 |  | CC[C@H]1Cc2c([nH]c3ccccc23)[C@H](c2ccc(C(=O)OC)cc2)N1C(=O)CCl [Compound 98] |
|  |  |  |  |  |  |  | 0.036 | COC(=O)c1ccc([C@H]2c3[nH]c4ccc(OC)cc4c3C[C@H](C(=O)OC)N2C(=O)CCl)cc1 [Compound 277] |
|  |  |  | 0.1 to 0.5 |  |  |  |  | CN(C)C(=O)[C@H]1Cc2c([nH]c3ccccc23)[C@H](c2ccncc2)N1C(=O)CCl [Compound 50] |
|  |  |  | 0.5 to 1 |  |  |  |  | C[C@H]1Cc2c([nH]c3ccccc23)[C@@H](c2ccc(N3CCN(C)CC3)cc2)N1C(=O)OCl [Compound 105] |
|  |  |  |  |  |  |  | 0.0065 | [2H]C([2H])(Cl)C(=O)N1[C@@H](c2ccc(S(=O)(=O)NC34CC5CC(CC(C5)C3)C4)cc2)c2[nH]c3ccccc3c2C[C@@H]1C(=O)OC [Compound 251] |
